Test results: ChEMBL document CHEMBL1201862, “PubChem BioAssay data set” (2004)
Active and inactive are the calls of the source.

Key:
[1] = molecular target: Lysine-specific demethylase 4A (Homo sapiens, UniProt O75164); experiment: inhibition of JMJD2A H3K9me3 demethylation – biochemical, DELFIA europium, cherry-picked samples, selectivity assay for GASC-1 inhibitor project, dose response (AID 488840)
[2] = molecular target: Tyrosyl-DNA phosphodiesterase 2 (Homo sapiens, UniProt O95551); experiment: potency against TDP2 phosphodiesterase activity – biochemical, epi absorbance, IC50, dose response (AID 743297)
Tyrosyl-DNA phosphodiesterase 2, sequence (O95551 whole entry): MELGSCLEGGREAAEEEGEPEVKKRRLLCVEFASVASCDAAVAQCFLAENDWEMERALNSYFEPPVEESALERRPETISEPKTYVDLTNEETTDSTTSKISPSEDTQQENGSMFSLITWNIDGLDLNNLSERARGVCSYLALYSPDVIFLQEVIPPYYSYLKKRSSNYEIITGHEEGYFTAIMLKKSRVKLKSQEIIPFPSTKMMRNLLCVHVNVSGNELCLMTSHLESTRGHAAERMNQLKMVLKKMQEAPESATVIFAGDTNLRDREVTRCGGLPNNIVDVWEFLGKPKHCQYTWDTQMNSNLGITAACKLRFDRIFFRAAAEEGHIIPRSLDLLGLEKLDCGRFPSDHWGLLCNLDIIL

[3] = molecular target: Lysine-specific demethylase 4C (Homo sapiens, UniProt Q9H3R0); experiment: inhibition of JMJD2C H3K9me3 demethylation – biochemical, DELFIA europium, cherry-picked samples, dose response (AID 488835); type: functional
Lysine-specific demethylase 4C, sequence (Q9H3R0 whole entry): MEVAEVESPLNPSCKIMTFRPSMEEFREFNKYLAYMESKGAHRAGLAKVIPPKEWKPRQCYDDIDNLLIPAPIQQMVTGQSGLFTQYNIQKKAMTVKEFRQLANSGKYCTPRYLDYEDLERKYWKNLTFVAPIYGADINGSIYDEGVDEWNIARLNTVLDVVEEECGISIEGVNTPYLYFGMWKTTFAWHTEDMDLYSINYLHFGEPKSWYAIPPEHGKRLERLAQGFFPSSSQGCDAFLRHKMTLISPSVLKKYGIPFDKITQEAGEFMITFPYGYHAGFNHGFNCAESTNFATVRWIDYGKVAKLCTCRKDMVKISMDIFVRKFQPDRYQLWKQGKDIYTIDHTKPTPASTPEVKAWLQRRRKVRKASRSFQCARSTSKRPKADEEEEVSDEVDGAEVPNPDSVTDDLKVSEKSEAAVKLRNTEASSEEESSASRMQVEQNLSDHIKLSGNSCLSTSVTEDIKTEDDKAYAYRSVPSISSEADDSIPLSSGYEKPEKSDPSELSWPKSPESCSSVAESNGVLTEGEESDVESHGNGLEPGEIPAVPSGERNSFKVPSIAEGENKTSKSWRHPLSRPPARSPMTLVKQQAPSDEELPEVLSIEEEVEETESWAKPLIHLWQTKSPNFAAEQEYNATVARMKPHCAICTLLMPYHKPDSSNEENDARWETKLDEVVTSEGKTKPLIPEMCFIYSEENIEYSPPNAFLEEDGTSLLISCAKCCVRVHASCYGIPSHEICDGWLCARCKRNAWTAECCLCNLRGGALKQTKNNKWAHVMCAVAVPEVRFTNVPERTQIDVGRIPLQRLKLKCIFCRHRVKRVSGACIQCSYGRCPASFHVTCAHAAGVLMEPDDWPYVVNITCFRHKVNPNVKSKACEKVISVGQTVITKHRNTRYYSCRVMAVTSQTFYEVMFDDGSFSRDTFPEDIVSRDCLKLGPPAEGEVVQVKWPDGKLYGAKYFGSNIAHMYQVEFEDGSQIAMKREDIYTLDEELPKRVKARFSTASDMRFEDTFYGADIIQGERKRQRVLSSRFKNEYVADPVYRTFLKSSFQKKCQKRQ

[4] = molecular target: DNA dC->dU-editing enzyme APOBEC-3G (Homo sapiens, UniProt Q9HC16); experiment: Dose Response confirmation of small molecule APOBEC3G DNA Deaminase Inhibitors via a fluorescence-based single-stranded DNA deaminase assay. [Related pubchem assays (depositor defined):AID493012, AID493028]; type: functional
DNA dC->dU-editing enzyme APOBEC-3G, sequence (Q9HC16 whole entry): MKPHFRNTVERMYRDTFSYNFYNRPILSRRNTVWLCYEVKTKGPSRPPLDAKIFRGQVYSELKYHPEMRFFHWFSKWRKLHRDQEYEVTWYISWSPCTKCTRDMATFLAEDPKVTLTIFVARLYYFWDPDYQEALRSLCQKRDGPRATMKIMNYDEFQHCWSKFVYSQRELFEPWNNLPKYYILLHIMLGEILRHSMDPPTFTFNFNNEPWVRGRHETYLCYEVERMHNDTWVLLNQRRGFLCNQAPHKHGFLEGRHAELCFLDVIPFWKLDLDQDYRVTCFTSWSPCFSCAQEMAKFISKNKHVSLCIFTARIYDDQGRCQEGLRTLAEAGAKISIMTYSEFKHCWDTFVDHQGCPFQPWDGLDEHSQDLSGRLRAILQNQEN

[5] = molecular target: T1, Mannose-6-phosphate isomerase (Homo sapiens, UniProt P34949); experiment: phosphomannose isomerase inhibition – biochemical, fluorescence intensity, confirmation (AID 1535)
T1 sequence (P34949 whole entry): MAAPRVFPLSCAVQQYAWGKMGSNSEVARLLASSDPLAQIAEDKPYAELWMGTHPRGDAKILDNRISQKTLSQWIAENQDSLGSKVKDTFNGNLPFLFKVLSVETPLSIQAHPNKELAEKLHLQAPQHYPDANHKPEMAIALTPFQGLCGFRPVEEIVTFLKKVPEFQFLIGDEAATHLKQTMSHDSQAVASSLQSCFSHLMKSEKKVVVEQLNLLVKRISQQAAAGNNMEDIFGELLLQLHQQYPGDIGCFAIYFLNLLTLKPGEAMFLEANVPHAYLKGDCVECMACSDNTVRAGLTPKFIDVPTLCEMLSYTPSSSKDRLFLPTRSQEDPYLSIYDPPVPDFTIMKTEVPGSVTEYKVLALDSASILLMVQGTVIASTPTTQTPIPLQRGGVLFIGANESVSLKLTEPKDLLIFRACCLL

[6] = molecular target: T1, Mannose-6-phosphate isomerase; experiment: Confirmation of compounds inhibiting phosphomannose isomerase (PMI) via a fluorescence intensity assay using a high concentration of mannose 6-phosphate. [Related pubchem assays (depositor defined):AID1209, AID1220, AID1545, AID1553, AID1620]
[7] = molecular target: Phosphoethanolamine/phosphocholine phosphatase (Homo sapiens, UniProt Q8TCT1); experiment: SAR assay for compounds that inhibit PHOSPHO1. [Related pubchem assays (depositor defined):AID1545, AID1565, AID1574]
Phosphoethanolamine/phosphocholine phosphatase, sequence (Q8TCT1 whole entry): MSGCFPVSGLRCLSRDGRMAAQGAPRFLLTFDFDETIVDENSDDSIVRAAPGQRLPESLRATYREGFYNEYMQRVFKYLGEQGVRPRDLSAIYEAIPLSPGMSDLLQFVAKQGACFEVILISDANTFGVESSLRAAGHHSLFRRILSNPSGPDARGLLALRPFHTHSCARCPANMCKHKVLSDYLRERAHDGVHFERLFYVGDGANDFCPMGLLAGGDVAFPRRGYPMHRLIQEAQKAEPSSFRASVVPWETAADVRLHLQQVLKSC

Phosphomannomutase 2 = Phosphomannomutase 2 (Homo sapiens, UniProt O15305); experiment: Counter screen SAR assay for PMM2 inhibitors via a fluorescence intensity assay. [Related pubchem assays (depositor defined):AID1545, AID1574]
Phosphomannomutase 2, sequence (O15305 whole entry): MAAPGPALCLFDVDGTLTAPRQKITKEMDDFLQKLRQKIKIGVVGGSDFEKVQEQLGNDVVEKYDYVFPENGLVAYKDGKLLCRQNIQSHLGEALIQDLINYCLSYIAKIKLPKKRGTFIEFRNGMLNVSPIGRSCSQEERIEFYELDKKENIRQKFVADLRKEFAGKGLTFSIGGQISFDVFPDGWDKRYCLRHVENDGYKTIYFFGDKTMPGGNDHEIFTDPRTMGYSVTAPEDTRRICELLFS

SUMO E1/E2 = SUMO E1/E2 (Homo sapiens, UniProt P63279+Q9UBE0+Q9UBT2); experiment: SAR analysis of SUMOylation using HTRF in an in-Vitro dose response assay. [Related pubchem assays (depositor defined):AID2006, AID2011, AID2018, AID2069, AID2658]; type: functional
Trypsin = Trypsin (Sus scrofa, UniProt P00761); experiment: trypsin protease activity blockade – biochemical, quenched peptide fluorescence, cherry-pick, selectivity assay for Rce1 protease inhibitor project, dose response (AID 488789)
Trypsin, sequence (P00761 whole entry): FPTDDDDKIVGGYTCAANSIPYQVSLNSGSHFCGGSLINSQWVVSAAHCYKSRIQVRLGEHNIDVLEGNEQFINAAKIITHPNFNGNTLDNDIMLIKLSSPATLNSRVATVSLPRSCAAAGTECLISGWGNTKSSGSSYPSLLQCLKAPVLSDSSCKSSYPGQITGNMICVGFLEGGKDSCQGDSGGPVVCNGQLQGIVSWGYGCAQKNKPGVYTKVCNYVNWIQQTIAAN

CAAX prenyl protease 2 = molecular target: T2, CAAX prenyl protease 2 (Saccharomyces cerevisiae S288c, UniProt Q03530); type: biochemical
T2 sequence (Q03530 whole entry): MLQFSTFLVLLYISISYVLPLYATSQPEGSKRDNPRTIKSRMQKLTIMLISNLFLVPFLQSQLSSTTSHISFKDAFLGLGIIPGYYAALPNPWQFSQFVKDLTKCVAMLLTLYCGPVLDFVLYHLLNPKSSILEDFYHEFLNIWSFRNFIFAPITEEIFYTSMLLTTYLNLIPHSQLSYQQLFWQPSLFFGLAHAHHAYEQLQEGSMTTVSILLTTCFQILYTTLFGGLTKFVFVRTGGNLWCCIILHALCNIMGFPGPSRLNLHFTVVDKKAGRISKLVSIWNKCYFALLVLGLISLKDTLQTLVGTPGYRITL

CAAX prenyl protease 1 = CAAX prenyl protease 1 (Saccharomyces cerevisiae S288c, UniProt P47154); experiment: yeast CAAX protease Ste24 inhibition – biochemical, S. cerevisiae, plate reader, cherry-pick, dose response (AID 488815)
CAAX prenyl protease 1, sequence (P47154 whole entry): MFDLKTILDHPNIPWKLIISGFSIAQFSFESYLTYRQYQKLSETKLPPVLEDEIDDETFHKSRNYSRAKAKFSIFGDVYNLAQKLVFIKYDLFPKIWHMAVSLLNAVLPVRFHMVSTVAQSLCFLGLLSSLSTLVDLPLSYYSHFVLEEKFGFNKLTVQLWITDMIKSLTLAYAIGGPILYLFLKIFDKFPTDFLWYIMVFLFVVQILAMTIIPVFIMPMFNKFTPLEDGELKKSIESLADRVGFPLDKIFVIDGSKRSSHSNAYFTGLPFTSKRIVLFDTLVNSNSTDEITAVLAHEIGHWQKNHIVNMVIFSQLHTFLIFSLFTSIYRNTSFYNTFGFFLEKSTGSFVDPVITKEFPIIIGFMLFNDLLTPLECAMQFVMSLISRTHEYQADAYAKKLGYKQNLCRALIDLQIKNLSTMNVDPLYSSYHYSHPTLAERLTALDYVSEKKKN

[8] = reduction of Shn3 3'UTR-driven luciferase in osteoblasts – cell-based, Clone20 osteoblasts, firefly luciferase, cherry-picked, dose response (AID 624132); type: functional;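 also: firefly luciferase luminescence from reporter carrying the Shn3 3'UTR in osteoblasts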
[9] = MIN6 cell viability loss – mouse insulinoma, cytotoxicity control, dose response (AID 2122); type: functional;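 also: confirmatory high-throughput counterscreen run to flag cytotoxic compounds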
[10] = decrease of insulin promoter-GFP reporter – imaging, high-content screening, mouse beta cells (AID 1628); type: functional; conditions: MIN6
[11] = loss of viability in HepG2 cells – cell-based, CellTiter-Glo, cherry-picked, cytotoxicity control for Shn3 inhibitor project, dose response (AID 624134); type: functional
[12] = non-specific 3'UTR reporter inhibition in Clone20-Shn3RL – cell-based, Renilla luciferase, cherry-picked, counter-screen for Shn3 inhibitor project, dose response (AID 624133); type: functional
Cytochrome P450 1A2 = molecular target: T3, Cytochrome P450 1A2 (Homo sapiens, UniProt P05177);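 also: PubChem cytochrome P450 panel assay, CYP1A2 panel member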
T3 sequence (P05177 whole entry): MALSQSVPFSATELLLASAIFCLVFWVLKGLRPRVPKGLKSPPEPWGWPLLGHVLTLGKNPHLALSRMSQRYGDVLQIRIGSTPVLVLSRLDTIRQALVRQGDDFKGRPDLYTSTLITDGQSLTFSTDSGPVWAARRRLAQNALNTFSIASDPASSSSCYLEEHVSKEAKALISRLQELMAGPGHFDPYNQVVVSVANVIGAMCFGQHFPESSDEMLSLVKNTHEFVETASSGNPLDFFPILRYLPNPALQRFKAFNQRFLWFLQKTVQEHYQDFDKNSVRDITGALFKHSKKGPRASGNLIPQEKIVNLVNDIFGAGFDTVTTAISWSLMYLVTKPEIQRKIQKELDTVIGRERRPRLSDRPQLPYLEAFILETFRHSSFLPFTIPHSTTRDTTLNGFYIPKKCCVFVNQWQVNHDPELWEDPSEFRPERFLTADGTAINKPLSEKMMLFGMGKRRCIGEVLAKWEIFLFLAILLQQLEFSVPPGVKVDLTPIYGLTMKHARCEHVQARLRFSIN

[13] = molecular target: T4, Sphingosine 1-phosphate receptor 4 (Homo sapiens, UniProt O95977); experiment: potency of S1P4 blockers – cell-based, fluorescence, synthesized analogues, late-stage follow-up (AID 2346); type: functional
T4 sequence (O95977 whole entry): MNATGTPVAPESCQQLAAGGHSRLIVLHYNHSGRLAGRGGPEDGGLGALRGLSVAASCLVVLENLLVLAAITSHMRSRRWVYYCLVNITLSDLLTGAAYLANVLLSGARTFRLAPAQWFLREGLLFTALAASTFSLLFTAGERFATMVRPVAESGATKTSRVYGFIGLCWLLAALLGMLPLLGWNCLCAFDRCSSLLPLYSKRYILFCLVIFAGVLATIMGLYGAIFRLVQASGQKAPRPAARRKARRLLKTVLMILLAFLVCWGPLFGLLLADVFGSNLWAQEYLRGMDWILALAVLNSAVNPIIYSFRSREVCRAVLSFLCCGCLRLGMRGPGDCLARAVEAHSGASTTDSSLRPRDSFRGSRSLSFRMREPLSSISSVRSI

[14] = molecular target: Sphingosine 1-phosphate receptor 1 (Homo sapiens, UniProt P21453); experiment: Late stage counterscreen assay for S1P4 antagonists: Fluorescence dose response cell-based screening assay for antagonists of the Sphingosine 1-Phosphate Receptor 1 (S1P1). [Related pubchem assays (depositor defined):AID1510, AID1524, AID1692, AID1853, AID2332, AID489009, AID489017]; type: functional
[15] = molecular target: Sphingosine 1-phosphate receptor 2 (Homo sapiens, UniProt O95136); experiment: Late stage counterscreen assay for S1P4 antagonists: Fluorescence dose response cell-based screening assay for antagonists of the Sphingosine 1-Phosphate Receptor 2 (S1P2). [Related pubchem assays (depositor defined):AID1510, AID1524, AID1692, AID1853, AID2332, AID489009, AID489017]; type: functional
Sphingosine 1-phosphate receptor 2, sequence (O95136 whole entry): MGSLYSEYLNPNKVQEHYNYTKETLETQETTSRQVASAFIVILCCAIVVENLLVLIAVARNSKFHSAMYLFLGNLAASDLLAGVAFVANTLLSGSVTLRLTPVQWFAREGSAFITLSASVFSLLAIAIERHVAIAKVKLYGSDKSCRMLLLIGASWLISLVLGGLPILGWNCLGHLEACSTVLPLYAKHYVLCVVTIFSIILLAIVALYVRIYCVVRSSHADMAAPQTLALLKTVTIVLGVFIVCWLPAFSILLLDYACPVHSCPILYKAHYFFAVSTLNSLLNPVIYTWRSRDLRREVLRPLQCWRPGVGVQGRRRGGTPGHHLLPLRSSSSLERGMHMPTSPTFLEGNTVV

[16] = molecular target: Sphingosine 1-phosphate receptor 5 (Homo sapiens, UniProt Q9H228); experiment: Late stage counterscreen assay for S1P4 antagonists: Fluorescence dose response cell-based screening assay for antagonists of the Sphingosine 1-Phosphate Receptor 5 (S1P5). [Related pubchem assays (depositor defined):AID1510, AID1524, AID1692, AID1853, AID2332, AID489009, AID489017]; type: functional
Sphingosine 1-phosphate receptor 5, sequence (Q9H228 whole entry): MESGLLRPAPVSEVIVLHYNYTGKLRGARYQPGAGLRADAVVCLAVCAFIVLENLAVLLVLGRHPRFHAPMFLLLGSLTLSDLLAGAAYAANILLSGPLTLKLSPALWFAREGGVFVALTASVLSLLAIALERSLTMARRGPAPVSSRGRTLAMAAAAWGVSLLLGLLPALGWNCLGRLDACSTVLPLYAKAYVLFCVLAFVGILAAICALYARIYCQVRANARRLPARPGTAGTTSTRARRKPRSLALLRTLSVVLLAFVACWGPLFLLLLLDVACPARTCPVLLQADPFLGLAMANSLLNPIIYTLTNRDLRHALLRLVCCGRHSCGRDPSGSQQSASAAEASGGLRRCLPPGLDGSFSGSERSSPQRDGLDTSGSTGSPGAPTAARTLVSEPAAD

[17] = molecular target: Sphingosine 1-phosphate receptor 3 (Homo sapiens, UniProt Q99500); experiment: Late stage counterscreen assay for S1P4 antagonists: Fluorescence dose response cell-based screening assay for antagonists of the Sphingosine 1-Phosphate Receptor 3 (S1P3). [Related pubchem assays (depositor defined):AID1510, AID1524, AID1692, AID1853, AID2332, AID489009, AID489017]; type: functional

Lysine-specific demethylase 4A, sequence (O75164 whole entry): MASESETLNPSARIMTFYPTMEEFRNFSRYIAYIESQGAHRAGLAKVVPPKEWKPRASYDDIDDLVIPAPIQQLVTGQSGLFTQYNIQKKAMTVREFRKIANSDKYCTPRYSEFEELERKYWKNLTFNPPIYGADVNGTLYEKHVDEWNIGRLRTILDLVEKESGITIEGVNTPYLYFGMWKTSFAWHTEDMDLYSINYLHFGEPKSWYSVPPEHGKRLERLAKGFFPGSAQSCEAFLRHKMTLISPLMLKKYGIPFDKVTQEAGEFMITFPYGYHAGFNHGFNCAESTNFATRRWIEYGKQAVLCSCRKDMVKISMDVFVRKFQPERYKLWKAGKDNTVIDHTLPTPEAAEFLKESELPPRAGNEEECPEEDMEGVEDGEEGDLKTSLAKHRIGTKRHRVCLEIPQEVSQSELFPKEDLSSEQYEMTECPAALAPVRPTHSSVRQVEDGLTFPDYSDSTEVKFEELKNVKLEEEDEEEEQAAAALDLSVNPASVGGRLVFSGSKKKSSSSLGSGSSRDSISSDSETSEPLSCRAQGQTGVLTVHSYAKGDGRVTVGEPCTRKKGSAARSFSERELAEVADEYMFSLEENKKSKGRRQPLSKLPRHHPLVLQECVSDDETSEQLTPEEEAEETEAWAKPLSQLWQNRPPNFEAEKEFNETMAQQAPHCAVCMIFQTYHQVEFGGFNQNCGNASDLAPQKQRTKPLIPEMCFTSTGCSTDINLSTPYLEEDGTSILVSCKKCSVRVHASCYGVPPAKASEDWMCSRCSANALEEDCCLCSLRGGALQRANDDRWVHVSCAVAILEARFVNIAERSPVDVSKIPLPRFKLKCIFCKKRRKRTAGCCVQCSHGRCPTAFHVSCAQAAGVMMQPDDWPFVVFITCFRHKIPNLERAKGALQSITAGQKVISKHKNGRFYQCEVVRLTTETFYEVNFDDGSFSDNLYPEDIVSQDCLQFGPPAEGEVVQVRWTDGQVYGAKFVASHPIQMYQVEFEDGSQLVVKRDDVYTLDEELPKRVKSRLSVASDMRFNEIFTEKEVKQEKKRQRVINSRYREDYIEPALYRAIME

O=C1NC(=O)C(Sc2ccccc2[N+](=O)[O-])C(=O)N1
AC50 [1]: 2.28 µM (active) | IC50 [2]: 36.3 µM (inactive) | AC50 [3]: 1.23 µM (active) | IC50 [4]: 52.7 µM (active)

Cc1ccc(C)c(N2Cc3ccccc3C2=O)c1
IC50 [5]: > 100 µM (inactive) | IC50 [6]: > 100 µM (inactive) | IC50 [7]: > 100 µM (inactive) | IC50 (Phosphomannomutase 2): > 100 µM (inactive)

Sc1nnc(-c2cc(-c3ccccc3)[nH]n2)n1N=Cc1c(Cl)cccc1Cl
IC50 (SUMO E1/E2): 82 µM (active)

COc1cccc2c(O)c(C(=O)O)cnc12
AC50 (Trypsin): 64.1 µM (active) | AC50 (CAAX prenyl protease 2): 36 µM (active) | AC50 (CAAX prenyl protease 1): 6.84 µM (active)

COc1ccccc1NC(=O)Cc1nn(C)c(=O)c2ccccc12
AC50 [8]: 1.97 µM (active) | IC50 [9]: 2.11 µM (active) | IC50 [10]: 3.14 µM (active) | AC50 [11]: 58.6 µM (active) | AC50 [12]: 2.05 µM (active)

N#CC[N+]1(Cc2ccccn2)CCCC1.O=S(=O)([O-])c1ccccc1
AC50 (Cytochrome P450 1A2): inactive

CCOc1ccc(OC)cc1-c1ccc(C(=O)Nc2c(C)cccc2CC)o1
IC50 [13]: 0.414 µM (active) | IC50 [14]: > 25 µM (inactive) | IC50 [15]: > 25 µM (inactive) | IC50 [16]: 19.2 µM (inactive) | IC50 [17]: > 25 µM (inactive)
